SMILES strings stand for the structures. The source made the active and inactive calls. Cut-off read from the data, not from the text of the source, for most assays here: actives have a measured EC50 and inactives only a lower limit.

In assay [1] the target is T1, Heat shock factor protein 1 (Mus musculus, UniProt P38532).
T1 sequence (P38532 whole entry): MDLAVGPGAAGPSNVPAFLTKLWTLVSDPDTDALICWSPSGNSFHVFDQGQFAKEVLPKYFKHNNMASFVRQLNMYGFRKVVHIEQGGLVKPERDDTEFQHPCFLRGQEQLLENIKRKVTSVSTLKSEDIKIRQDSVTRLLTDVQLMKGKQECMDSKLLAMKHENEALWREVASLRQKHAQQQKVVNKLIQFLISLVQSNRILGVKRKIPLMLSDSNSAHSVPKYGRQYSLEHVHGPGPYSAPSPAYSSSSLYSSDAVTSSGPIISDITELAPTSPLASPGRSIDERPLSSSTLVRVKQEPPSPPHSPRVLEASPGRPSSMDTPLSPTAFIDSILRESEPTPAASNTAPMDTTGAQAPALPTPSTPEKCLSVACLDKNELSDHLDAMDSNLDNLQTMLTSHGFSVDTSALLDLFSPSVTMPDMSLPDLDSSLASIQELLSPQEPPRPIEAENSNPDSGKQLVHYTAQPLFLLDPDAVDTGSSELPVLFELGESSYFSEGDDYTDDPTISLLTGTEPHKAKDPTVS
Put plainly: HSF1 potentiators in luciferase reporter cells, confirmation, cell-based, NIH3T3, luminescence, dose retest (AID 435004).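 Note: stress induced by proteasome inhibitor MG132 added 30 min after compound; luciferase reporter driven by HSF1 response element in NIH3T3 cells; actives raise luminescence as potentiators of the MG132 stress response.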 It is filed as functional. A general note: Reporter assays use an easily measured gene product as a stand-in for the process of interest.

A short description of assay [2]: Luminescence Cell-Based Dose Retest to Confirm Inhibitors of Cancer Stem Cells. [Related pubchem assays (depositor defined):AID2717, AID2721]. Format: functional. The following applies: Homo sapiens.
Another assay relates to INS1. Put plainly: beta cell apoptosis inhibitors, cytokine rescue, dose response, luminescence, retest (AID 449756).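 Note: cell death triggered by IL-1 beta plus TNF-alpha plus IFN-gamma mixture; protective hits raise ATP signal compared with cytokine alone wells.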 It is filed as functional, cell-based. The following applies: Rattus norvegicus.
The target of assay [3] is T2, Corticotropin-releasing factor receptor 2/Corticotropin-releasing factor-binding protein (Homo sapiens, UniProt P24387+Q13324).
T2 sequence (Q13324 whole entry): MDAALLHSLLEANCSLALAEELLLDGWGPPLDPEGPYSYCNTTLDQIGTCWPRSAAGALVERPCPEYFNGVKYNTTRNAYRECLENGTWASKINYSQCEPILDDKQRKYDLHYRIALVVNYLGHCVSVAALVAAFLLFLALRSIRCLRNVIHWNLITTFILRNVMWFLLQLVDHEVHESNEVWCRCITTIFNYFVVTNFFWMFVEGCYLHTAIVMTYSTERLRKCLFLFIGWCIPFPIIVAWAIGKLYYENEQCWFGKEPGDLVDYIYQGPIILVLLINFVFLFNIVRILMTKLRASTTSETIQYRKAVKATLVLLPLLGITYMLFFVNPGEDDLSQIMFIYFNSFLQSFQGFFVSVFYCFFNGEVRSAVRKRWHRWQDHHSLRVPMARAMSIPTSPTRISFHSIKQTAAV
T2 sequence (P24387 whole entry): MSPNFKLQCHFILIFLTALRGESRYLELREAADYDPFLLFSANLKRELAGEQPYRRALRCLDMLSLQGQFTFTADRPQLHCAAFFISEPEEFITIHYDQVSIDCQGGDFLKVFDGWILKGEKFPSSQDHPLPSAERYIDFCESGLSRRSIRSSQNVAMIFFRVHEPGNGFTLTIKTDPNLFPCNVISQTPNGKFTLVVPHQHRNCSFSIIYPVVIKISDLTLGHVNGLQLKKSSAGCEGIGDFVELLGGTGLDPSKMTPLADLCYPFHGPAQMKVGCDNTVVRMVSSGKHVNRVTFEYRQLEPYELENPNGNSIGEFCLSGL
In words: Dose Response confirmation of uHTS hits for small molecule antagonists of the CRF-binding protein and CRF-R2 receptor complex. It is filed as functional. The following applies: read-out: IC50_Mean.

The target of assay [4] is T2, Corticotropin-releasing factor receptor 2/Corticotropin-releasing factor-binding protein. In words: activators of CRF receptor 2 with binding protein – uHTS hits, confirmation (AID 602473). Format: functional. The following applies: read-out: EC50_Mean.
A short description of assay [5]: inhibitors of firefly luciferase expression or activity, dose response, H4 neuroglioma cells, luminescence (AID 1990). It is filed as functional, cell-based.
Assay [6] is described as follows: Luminescence Cell-Based Dose Response HTS to Identify Inhibitors of 5'UTR Stem-Loop Driven Prion Protein mRNA Translation in H4 Neuroglioblastoma Cells. [Related pubchem assays: 1827 (Project Summary), 1813 (Primary HTS)]. It is filed as functional.
A short description of assay [7]: inhibitors of SNCA 5'UTR-driven reporter translation, confirmation, H4 neuroglioma cells, luminescence (AID 1988). It is filed as functional, cell-based.

Take `CN(c1cccc(NC(=O)CN(c2cccc(Cl)c2)S(=O)(=O)c2ccc(Cl)cc2)c1)S(C)(=O)=O`: the EC50 in assay [1] is > 260 µM (inactive).

A word on the AC50: it is the concentration giving half of the maximal activity seen. `CC1(C)C[C@@H]2C[C@@](C)(CN2C(=O)c2cc(COc3cccc(C(F)(F)F)c3)on2)C1`: the AC50 in assay [2] is 2.23 µM (active); in the assay on INS1, 11.6 µM (active).

Turning to `COc1ccc(C(C(=O)NCC2CCCO2)N(C(=O)Cn2nnc3ccccc32)c2ccc(NC(C)=O)cc2)cc1OC` (configuration not stated), the EC50 in assay [1] was > 260 µM (inactive).

As for `O=C(c1ccco1)N1N=C(c2ccc(Br)cc2)CC1c1ccco1` (configuration not stated), the AC50 with INS1 was 19.8 µM (active).

For the molecule `S=C(NCc1ccccc1)Nc1ccc(Cl)cc1`, the IC50 in assay [3] was > 47.1 µM (inactive). Further, the EC50 in assay [4] is > 53 µM (inactive).

Take `CCc1ccccc1N1C(=O)C2CC(C)=C(C)CC2C1=O` (configuration not stated): the IC50 in assay [3] was > 47.1 µM (inactive). Further, the EC50 in assay [4] was > 53 µM (inactive).

`Cc1ccc(O)c(CNc2nccs2)c1`: the EC50 in assay [1] was 20.5 µM (active).

Take `C=CCn1c(SCC(=O)Nc2cc(NC(C)=O)ccc2OC)nnc1-c1cccnc1`: in assay [1], the EC50 is > 260 µM (inactive).

With `CCNC(=O)Nc1cc(S(=O)(=O)Nc2ccc(OC)cc2)ccc1N1CCOCC1`, the concentration at half-maximal activity (AC50) with INS1 was 3.3 µM (active).

For `C[C@@H]1CN([C@H](C)CO)C(=O)c2cc(NC(=O)Nc3ccc(C(F)(F)F)cc3)ccc2O[C@H]1CN(C)S(=O)(=O)c1cccs1`, the AC50 in the assay with INS1 is 27 µM (active).

As for `CN(CCO)S(=O)(=O)c1ccc2c(c1)C(=NNC(N)=O)c1cc(S(=O)(=O)N(C)CCO)ccc1-2`, the IC50 in assay [3] was > 47.1 µM (inactive). Also, in assay [4], the EC50 is > 53 µM (inactive).

In the case of `COc1cccc(C(=O)N2CCCC(CCC(=O)NCc3ccc(F)c(F)c3)C2)c1` (configuration not stated), in assay [3], the IC50 is > 47.1 µM (inactive). The EC50 in assay [4] was > 53 µM (inactive).

On to `O=C(CSc1nnc(C2COc3ccccc3O2)o1)NC1CCCCC1` (configuration not stated), for which the IC50 in assay [3] is > 47.1 µM (inactive). In assay [4], the EC50 is > 53 µM (inactive).

With `CCOc1ccccc1CNC(=O)c1nn(C)c2c1CS(=O)(=O)c1ccccc1-2`, the EC50 in assay [5], in assay [6] and in assay [7] was > 120 µM (not active) in each case.

With `Cc1cc(C)c2c(C)n[nH]c2n1`, in the assay on INS1, the AC50 is > 260 µM (inactive).

Consider `CCc1nc(N2CCN(S(=O)(=O)c3ccc(Br)cc3)CC2)c2c(C)c(C)sc2n1`, for which the EC50 in assay [1] was > 260 µM (inactive).

As for `O=C(c1ccccc1)c1nc2ccccc2n(CCCn2c(=O)c(C(=O)c3ccccc3)nc3ccccc32)c1=O`, the EC50 in assay [5] is 33.3 µM (active); in assay [6], 34.5 µM (active); in assay [7], > 120 µM (not active).

`O=S(=O)(NC1c2cccc3cccc(c23)C1N1CCNCC1)c1ccc(Cl)cc1` (configuration not stated): the EC50 in assay [1] is > 260 µM (inactive).

As to `CCCCCCSc1cc(-c2nc3ccc(C)cn3c2NCc2ccccc2)ccc1OC`, the AC50 in the assay on INS1 is 6.87 µM (active).

In the case of `COc1cc(OC)cc(C(=O)NCC(=O)OCc2cc(=O)oc3cc(OC)ccc23)c1`, in assay [3], the IC50 was > 47.1 µM (inactive). In addition, in assay [4], the EC50 was > 53 µM (inactive).

For `COc1ccc(-c2noc(CCCC(=O)NC3CCCC3)n2)cc1`, the EC50 in assay [5] is 11 µM (active); in assay [6], 14.1 µM (active); in assay [7], 13.3 µM (active).

For the molecule `CCOC(=O)Cn1nnnc1C(C(C)C)N(Cc1cc2c(C)cc(C)cc2[nH]c1=O)C1CCCC1` (configuration not stated), the EC50 in assay [1] was 36.9 µM (active).

Take `CCOC(=O)c1ccc(NC(=O)c2cc3c(C)nn(-c4ccccc4Cl)c3s2)s1`: the EC50 in assay [5] is 15.3 µM (active); in assay [6], > 120 µM (not active); in assay [7], > 120 µM (not active).

In the case of `COc1ccc(CNC(=O)CCC(=O)N2CC(C)Oc3ccccc32)cc1` (configuration not stated), the EC50 in assay [1] is > 260 µM (inactive).

Consider `Cc1ccc2c(c1)c(-c1ccccc1)nc1nnnn12`, for which the results for the EC50 in assay [5], in assay [6] and in assay [7] were 17.5 µM (active), > 120 µM (not active) and 120 µM (active), respectively.
